# Data as given in patent US9617517B2, “Small chemical compound which promotes induction of differentiation of stem cells into insulin-producing cells and method for inducing differentiation of stem cells into insulin-producing cells using said small chemical compound” (NATIONAL UNIVERSITY CORPORATION KUMAMOTO UNIVERSITY, priority 2011, dated 2017).
# Key:
# VMAT2KD ES cells [1] = experiment: c-peptide amount of differentiated VMAT2KD ES cells (ELISA); assay type: cell-based, mouse; settings: dBu-cAMP 0.6 μM (FIG. 12A)
# Protocol: (§1) In the Vmat2-knockdown and Drd2-knockdown assays, Expression Arrest non-silencing control shRNA (Open Biosystems, #RHS4080), Vmat2 hRNA (Open Biosystems, #RMM3981-97058457 and #RMM3981-97058458) or Drd2 hRNA (Open Biosystems, #RMM3981-9594258) lentiviral vectors were used. For virus preparation, HEK293-FT cells (Invitrogen) were seeded on a plate medium the day before transfection. After overnight culture, the cells were transfected with lentiviral vectors and ViraPower™ Lentiviral Packaging Mix (Invitrogen) using FuGENE6 Transfection Reagent (Roche) according to the manufacturer's protocol. Cells were incubated in the ES maintenance medium for 24 hours, and viral supernatants were collected. Then, SK7 cells were infected with the viral supernatants. After incubation for 24 hours, the virus-containing medium was replaced with fresh ES maintenance medium. Further 24 hours later, the infected cells were selected using […] puromycin. The surviving cells were cloned as a knockdown-cell lines.
# Differentiated ES cells were pre-incubated for 4 hours in low glucose (5.5 mM) Dulbecco's modified minimal essential medium with 1% fetal bovine serum. […] Insulin secretion into the culture medium and insulin content of the cell lysate were measured using the mouse c-peptide ELISA kit (Shibayagi. Co. Ltd., Japan). […]
# VMAT2KD ES cells [2] = experiment: Differentiation into insulin-expressing cells in vesicular monoamine transporter knock-down cell line; assay type: cell-based, mouse; settings: VMAT2KD cells with dBu-cAMP 0.63 μM; control = normal cells without cAMP analog (FIG. 11A)
# Protocol: as §1
# Drd2 is known as a G protein-coupled receptor activating Gαi/o protein and having an inhibiting activity against adenyl cyclase. To identify the intracellular signal transduction phenomenon by Drd2, the effect of cAMP was examined. […] This enhancement was stronger than that obtained when dBu-cAMP was added to VMAT2KD ES cells (FIG. 10). […]
# Ngn3/GFP mouse ES cells = experiment: Ngn3 positive cell inducing rate; assay type: cell-based; settings: TBZ 2.5 μM or dBu-cAMP 0.6 μM; addition days 9-11, 11-13 or 9-13; day 13 (FIG. 16C)
# Protocol: The influence exerted on the Ngn3 positive cell inducing rate by addition of TBZ (2.5 μM) or dBu-cAMP (0.6 μM) was confirmed. FIG. 16A is a view schematically showing the addition periods of TBZ or dBu-cAMP, and the addition periods are a) on days 9 to 11 of culture, b) on days 11 to 13 of culture, and c) on days 9 to 13 of culture.
# First, the compound was not added or TBZ was added on days 9 to 13 of culture (period c), and visible light photographs and fluorescence of Ngn3/GFP mouse ES cells were observed on day 13 of culture. The left one is a visible light photograph and the right one is fluorescence.
# Next, the compound was not added, or TBZ or dBu-cAMP was added under the above-described conditions a), b) and c), and the proportion of GFP positive cells on day 13 of culture was checked. The ratios of the proportions of GFP positive cells and Ngn3 positive cells when the ratio in the case of no addition is 1 are shown in FIG. 16C. […] The order of intensity of the effect was a), c), b) in descending order.
# differentiated ES cells = experiment: Secreted insulin and cellular insulin content by mouse c-peptide ELISA; assay type: cell-based
structure (smiles),measurement,setting,value
"CCCC(=O)Nc1ncnc2c1ncn2[C@@H]1O[C@@H]2COP(=O)(O)O[C@H]2[C@H]1OC(=O)CCC [Dibutyryl- cAMP, dibutyrate-cAMP]",c-peptide amount of differentiated cells,VMAT2KD ES cells [1],large increase in the c-peptide amount
same,increase of number of insulin-expressing cells,VMAT2KD ES cells [2],31.4 fold
same,number of GFP positive cells,Ngn3/GFP mouse ES cells,increased in all conditions
same,sugar-responsive C-peptide secretion,"differentiated ES cells; dBu-cAMP 0.6 μM, no TBZ, addition days 11-17, 11-15 or 13-17, day 17 (FIG. 17)",increased in all conditions
same,C-peptide secretion,"differentiated ES cells; glucose concentration 27.5 mM, dBu-cAMP 0.6 μM day 11 to 17 (FIG. 18E)",C-peptide secretion was observed
